From patent US20240300902A1, “NOVEL TRANSGLUTAMINASE 2 INHIBITOR AND USE THEREOF” (MD BIOLAB CO., LTD., priority 2021, published 2024)
Read-outs that look alike come from different tables or passages of the source.

Key:
[1] = biological target: T1, guinea pig liver-originated transglutaminase 2 (Cavia cutleri, UniProt P08587); assay: In vitro transglutaminase 2 assay (1), [1,4-14C] putrescine incorporation into succinylated casein; assay type: biochemical; details: for mean value (scintillation counts) / fold values relative to the mean value of the control: 2 μM; for mean value (scintillation counts): negative control 129.0, control 4147.5, FIG. 1; for fold values relative to the mean value of the control: standard deviations 0.02 and 0.01; for TGase2 enzyme activity inhibitory effect compared with streptonigrin (KN383, positive control): same dose (2 μM)
T1 construct: 1 mU of guinea pig liver-originated transglutaminase 2 (Sigma, St. Louis, MO, USA); purchased Sigma; host or cells: guinea pig liver
T1 sequence (P08587 1-690): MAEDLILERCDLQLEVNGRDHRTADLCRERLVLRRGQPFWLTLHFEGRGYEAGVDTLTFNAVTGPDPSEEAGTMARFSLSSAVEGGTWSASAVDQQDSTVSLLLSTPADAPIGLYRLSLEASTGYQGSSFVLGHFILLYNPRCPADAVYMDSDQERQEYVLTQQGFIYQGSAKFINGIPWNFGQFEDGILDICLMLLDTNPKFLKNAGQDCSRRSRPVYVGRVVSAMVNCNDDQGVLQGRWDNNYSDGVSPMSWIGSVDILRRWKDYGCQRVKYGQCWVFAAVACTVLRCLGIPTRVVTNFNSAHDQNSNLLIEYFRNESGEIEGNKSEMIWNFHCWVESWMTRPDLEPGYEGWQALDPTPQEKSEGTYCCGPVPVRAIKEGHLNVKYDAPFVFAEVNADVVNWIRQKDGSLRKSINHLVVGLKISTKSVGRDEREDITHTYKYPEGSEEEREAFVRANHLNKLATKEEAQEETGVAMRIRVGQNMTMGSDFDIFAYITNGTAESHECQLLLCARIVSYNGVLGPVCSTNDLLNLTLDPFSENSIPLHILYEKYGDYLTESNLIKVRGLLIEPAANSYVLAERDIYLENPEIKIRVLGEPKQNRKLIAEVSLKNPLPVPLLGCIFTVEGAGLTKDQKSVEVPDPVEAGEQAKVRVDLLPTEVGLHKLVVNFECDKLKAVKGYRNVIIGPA
Method: Incorporation of [1,4-14C] putrescine into succinylated casein was measured to determine the inhibitory effect of each compound on the activity of transglutaminase 2 (TGase 2). 1 mU of guinea pig liver-originated transglutaminase 2 (Sigma, St. Louis, MO, USA) was preincubated with various concentrations of GK13 or GK921 in a 0.1 mL reaction buffer with or without 10 mM CaCl2 for 10 minutes, and 0.4 mL of a substrate solution containing 2% (w/v) succinylated casein and 100 nCi of [1,4-14C] putrescine. After incubation at 37° C. for 1 hour, 4 mL of cold (4° C.) 7.5% (w/v) trichloroacetic acid (TCA) was added to terminate the reaction. The TCA-insoluble precipitate was recovered with a GF/A-grade glass filter (Millipore, Billerica, MA, USA), washed with cold 5% (w/v) TCA, dried, and assessed with a scintillation counter (Beckman Coulter, Brea, CA, USA) to evaluate radiolabel binding. Transglutaminase 2 which was pre-incubated only with a buffer was used as a positive control. The scintillation counts were compared between the example and the positive control, and IC50 values were determined through the logistic linear regression method. The presented data were the mean values of three independent experiments. In this experimental example and the following experimental example, Streptonigrin (described as KN383 in each figure of the drawing), which is an existing transglutaminase 2 inhibitor, was used as a positive control.

MCF7 cells = assay: Cell viability in breast cancer cell lines according to concentration; assay type: cell-based; details: MCF7, no expression of transglutaminase 2, 72 hours
Method: First breast cancer cells (MDA-MB-453, HCC-1806, HCC-1937: 10,000 cells/well, 100 μl) and second breast cancer cells (MDA-MB-231, MCF-7: 10,000 cells/well, 100 μl) were cultured in 96-well microplates.
After 24 hours, LDD3959 […] of various concentrations were added to each well, using a serum-free cell culture medium, and a reaction was allowed to proceed for 2 hours at 37° C. in the presence of 5% CO2. The culture medium was replaced with a culture medium containing 10% FSB, and a reaction was performed for 72 hours.
The existing culture medium was removed, and a new culture medium containing a water soluble tetrazolium salt was added. After that, the plate underwent a reaction at 37° C. in the presence of 5% CO2 for a duration in the range of 1 hour to 3 hours, and then absorbance was measured at 450 nm.

[2] = system: ACHN cancer cell population; assay: Sulforhodamine B (SRB) assay; assay type: cell-based, Human; details: for GI50 / SRB measurement (percentage decrease in the control value of SRB): 48 hours; for GI50: read-out: GI50 (50% growth inhibition); for SRB measurement (percentage decrease in the control value of SRB): concentration of 10^−5 M; for decrease in cell counts: concentrations 10^−6 M or lower
Method: Cells (10,000 cells/well, 100 μL) were incubated in a 96-well microtiter plate. After 24 hours of the incubation, drug (100 μL) was added to each of the wells, and the culture was further incubated at 37° C. for 48 hours. The cells were then fixed in TCA (50 μL per well). The plates were incubated at 4° C. for a minimum of 1 hour or a maximum of 3 hours. The liquid was removed from the plates, and then the plate was washed five times with water and then dried at room temperature (RT) for about 12-24 hours. The fixed cells were stained with 100 μL SRB for 5 minutes at room temperature. After the staining, the plate was washed three times with 1% (w/v) glacial acetic acid and dried at room temperature for about 12-24 hours. Next, the SRB was then dissolved in 10 mM Trizma base, and the absorbance was measured at 515 nm. The effect of the drug was expressed as GI50 (50% growth inhibition).
Specifically, each of the LDD3732, LDD3922, and LDD3959 in concentrations of 10^−9, 10^−8, 10^−7, 10^−6, and 10^−5 M were tested, and the percentage decrease in the control value of SRB was measured using an ACHN cancer cell population.

p53 = assay: P53 rescue test using western blotting; assay type: cell-based; details: low to high concentration, cancer cell lines
Method: Whole cell lysates were prepared using a radioimmunoprecipitation assay (RIPA) buffer (150 mM sodium chloride, 1.0% (w/v) IGEPAL® CA-630 (NP-40), 0.5% (w/v) sodium deoxycholate, 0.1% (w/v) sodium dodecyl sulfate (SDS), a protease inhibitor cocktail, and 50 mM Tris-HCl (pH 8.0) containing a phosphatase inhibitor cocktail. Protein assays were performed through Bradford protein assay (Thermo Scientific, Waltham, MA, USA) to normalize protein expression. The proteins were resolved by SDS-PAGE and transferred to polyvinylidene difluoride (PVDF) membranes (Merck Millipore, Burlington, MA, USA). The membranes were blocked with 5% (w/v) BSA for 1 hour at room temperature and incubated overnight at 4° C. with labeled antibodies. Membranes were washed in TBS-T for 1 hour at room temperature and incubated together with a horseradish peroxidase (HRP)-bound secondary antibody for 1 hour at room temperature. Finally, the membranes were washed in TBS-T for 1 hour at room temperature and developed with enhanced chemiluminescence.

Row | SMILES | mean value (scintillation counts) [1] | effective concentration for apoptosis (MCF7 cells) | fold values relative to the mean value of the control [1] | TGase2 enzyme activity inhibitory effect compared with streptonigrin (KN383, positive control) [1] | GI50 [2] | SRB measurement (percentage decrease in the control value of SRB) [2] | decrease in cell counts [2] | p53 rescue effect (Western blot band of p53) (p53) | GI50 ([2]; Homo sapiens)
1 | COC1=C(N)C(=O)c2nc(-c3nc(C(=O)O)c(C)c(-c4ccc(OC)c(OC)c4O)c3N)ccc2C1=O [streptonigrin, Streptonigrin, reference compound] | 1275.5 | low |  |  |  |  |  |  | 
2 | O=C1C(Cl)=C(Cl)C(=O)c2[nH]c(-c3ccccc3)nc21 [LDD3732, 5,6-dichloro-2-phenyl-1H-benzo[d]imidazole-4.7-dione] | 477.5 |  | 0.12 | two-fold or greater stronger TGase2 enzyme activity inhibitory effects than the control | 2.2 µM | −41.43 | no significant decrease in cell counts | dose-dependent p53 rescue effects | 
3 | O=C1C(Cl)=C(Cl)C(=O)c2[nH]c(-c3ccc(Br)cc3)nc21 [LDD3922, 2-(4-bromophenyl)-5,6-dichloro-1H-benzo[d]imidazole-4,7-dione] | 352.5 |  | 0.08 | two-fold or greater stronger TGase2 enzyme activity inhibitory effects than the control |  | 52.25 | no significant decrease in cell counts | dose-dependent p53 rescue effects | 5 µM
